Experimental data published in patent publication US20060122181A1, “Heteroaromatic pentacyclic compound and medicinal use thereof” (Japan Tobacco Inc., priority 2003, published 2006).

Row | Compound | melting point
1 | CCCC(CCC)c1ccc(OCc2ccc(-c3csc(CN(C)c4cccc(C(=O)O)n4)n3)cc2)cc1 [Example 1-143] | 123 to 125 °C
2 | CCCC(CCC)c1ccc(OCc2ccc(-c3csc(CN(CC(=O)O)CC(=O)N(c4ccccc4)C(C)C)n3)cc2)cc1 [Example 1-99] | 115.5 °C
3 | CCCC(CCC)c1ccc(OCc2ccc(-c3csc(COc4cccnc4C(=O)O)n3)cc2)cc1 [Example 1-82] | 138.5 °C (dec.)
4 | CN(Cc1ccccc1)c1ccc(-c2csc(CN(CC(=O)O)Cc3ccc(Cl)cc3)n2)cc1 [Example 3-49] | 140 to 142 °C
5 | CCCC(CCC)c1ccc(Cn2c(-c3csc(CN4CCN(c5cccc(C(=O)O)c5)CC4)n3)nc3ccccc32)cc1 [Example 1-170] | 179.8 to 181.2 °C
6 | CCCC(CCC)c1ccc(CN(C)C(=O)c2ccc(-c3csc(CN(CC(=O)O)Cc4ccccc4)n3)cc2)cc1 [Example 1-56] | 65 to 71 °C
7 | CN(CC(=O)O)Cc1nc(-c2ccc(N(C)Cc3ccc(C4CCCCC4)cc3)cc2)cs1 [Example 3-80] | 152 to 155 °C
8 | CC(C)Cc1ccc(COc2ccc(C(C)(C)C)cc2-c2csc(CN(CC(=O)O)Cc3ccccc3)n2)cc1 [Example 3-12] | 155 to 157 °C
9 | CN(Cc1ccc(CC(C)(C)C)cc1)c1ccc(-c2csc(CN(C)C(Cc3ccccc3)C(=O)O)n2)cc1 (stereo not shown) [Example 3-89] | 160 to 161 °C
10 | CCCC(CCC)c1ccc2c(c1)nc(-c1csc(COc3ccc(C(=O)O)cc3)n1)n2Cc1cccc(C)n1 [Example 1-159] | 113 to 116 °C
11 | CN(Cc1ccc(CC(C)(C)C)cc1)c1ccc(-c2csc(CN(CC(=O)O)Cc3ccccc3)n2)cc1 [Example 3-27] | 159 to 160 °C
12 | CCCC(CCC)c1ccc(COc2ccc(-c3csc(CN4CCC(c5ccccc5C(=O)O)CC4)n3)cc2)cc1 [Example 1-164] | 170 to 172 °C
13 | CCCC(CCC)c1ccc(N(Cc2ccc(-c3csc(CN(CC(=O)O)S(=O)(=O)N(C)c4ccccc4)n3)cc2)C(C)C)cc1 [Example 1-116] | 146 to 148 °C
14 | CC(C)Cc1ccc(CN(C)c2ccc(-c3csc(CN(CC(=O)O)Cc4ccc(Cl)cc4)n3)cc2)cc1 [Example 3-47] | 153 to 157 °C
15 | CC(C)Cc1ccc(CN(C)c2ccc(-c3csc(CNC(Cc4ccc(Cl)cc4)C(=O)O)n3)cc2)cc1 (stereo not shown) [Example 3-79] | 199 to 204 °C
16 | CCCC(CCC)c1ccc(OCc2ccc(-c3ccc(C(=O)N(CC(=O)O)Cc4ccccn4)s3)cc2)cc1 [Example 4-46] | 147 to 150 °C
17 | CCC(CC)c1ccc(N(Cc2ccc(-c3csc(COc4ccc(C(=O)O)cc4)n3)cc2)C(C)C)cc1 [Example 1-2] | 219 °C
18 | CCCC(CCC)c1ccc(OCc2ccc(-c3csc(CN(CC(=O)O)Cc4ncc(C(C)(C)C)o4)c3)cc2)cc1 [Example 4-29] | 120.5 °C
19 | CN(C[C@H]1CC[C@H](c2ccc(C(C)(C)C)cc2)CC1)c1ccc(-c2csc(CN(CC(=O)O)Cc3ccccc3)n2)cc1 [Example 3-28] | 192 to 195 °C
20 | CCC(C)(C)c1ccc(OCc2ccc(-c3csc(N(C)Cc4ccc(C(=O)O)cc4)n3)cc2)cc1 [Example 1-38] | 155 to 157 °C
21 | CN(Cc1ccc(C2CCCCC2)cc1)c1ccc(-c2csc(CN3CCCC(C(=O)O)C3)n2)cc1 (stereo not shown) [Example 3-66] | 176 to 180 °C
22 | CC(C)Cc1ccc(CN(C)c2ccc(-c3csc(CN4Cc5ccccc5CC4C(=O)O)n3)cc2)cc1 (stereo not shown) [Example 3-72] | 168 to 170 °C

Row | Compound | melting point
23 | CCCC(CCC)c1ccc(Cn2c(-c3csc(CN4CCC(c5ccc(C(=O)O)cc5)CC4)n3)nc3ccccc32)cc1 [Example 1-171] | 208.5 to 209.8 °C
24 | CCCC(CCC)c1ccc(N(C)Cc2ccc(-c3csc(COc4ccc(C(=O)O)cc4)n3)cc2)cc1 [Example 1-5] | 161 to 163 °C
25 | CN(Cc1nc(-c2ccc(N(C)Cc3ccc(C4CCCCC4)cc3)cc2)cs1)C(=O)c1ccc(C(=O)O)cc1 [Example 3-107] | 162 to 164 °C
26 | O=C(O)CN(CC1CCCCC1)c1nc(-c2nc3ccc(OCc4ccc(Cl)c(Cl)c4)cc3o2)cs1 [Example 3-110] | 198 to 200 °C
27 | CCC(CC)c1ccc2nc(-c3csc(COc4ccc(C(=O)O)cc4)n3)n(Cc3ccc(C(C)=O)cc3)c2c1 [Example 3-131] | 138 to 139 °C
28 | O=C(O)c1cccc(C2CCN(Cc3nc(-c4ccc(OCc5cc(C(F)(F)F)cc(C(F)(F)F)c5)cc4)cs3)CC2)c1 [Example 1-174] | 222 to 228 °C
29 | CC(C)CN(Cc1ccc(-c2csc(CN(CC(=O)O)C(=O)c3cccnc3)n2)cc1)c1ccc(C(C)(C)C)cc1 [Example 1-30] | 193 °C
30 | CCCC(CCC)N(Cc1ccc(-c2csc(COc3cncc(C(=O)O)c3)n2)cc1)c1ccc(C(C)C)cc1 [Example 1-7] | 184 to 185 °C
31 | CCCC(CCC)c1ccc(N(Cc2ccc(-c3csc(CN(CC(=O)O)Cc4nc(C)c(C)s4)n3)cc2)C(C)C)cc1 [Example 1-146] | 156 to 157 °C
32 | CCCC(CCC)c1ccc(OCc2ccc(-c3ccc(CN(CC(=O)O)CC(=O)Nc4ccccc4)s3)cc2)cc1 [Example 4-10] | 122 to 124 °C
33 | CCCC(CCC)c1ccc(N(Cc2ccc(-c3ccc(CN(CC(=O)O)Cc4nc5ccccc5[nH]4)s3)cc2)C(C)C)cc1 [Example 4-22] | 144 to 150 °C
34 | CN(Cc1ccc(C2CCC(F)CC2)cc1)c1ccc(-c2csc(CN(CC(=O)O)Cc3ccccc3)n2)cc1 (stereo not shown) [Example 3-33] | 146 to 147 °C
35 | CCC(CC)c1ccc(N(Cc2ccc(-c3csc(COc4cccc(C(=O)O)c4)n3)cc2)C(C)C)cc1 [Example 1-91] | 165 to 167 °C
36 | CCC(CC)c1ccc(COc2ccc(-c3csc(CN(CC(=O)O)Cc4ccccn4)n3)cc2)cc1 [Example 3-20] | 156 to 157 °C
37 | CN(Cc1ccc(-c2csc(N(C)Cc3ccc(C(=O)O)cc3)n2)cc1)c1ccc(C2CCCCC2)cc1 [Example 1-18] | 190 to 192 °C
38 | CCCC(CCC)c1ccc(N(Cc2ccc(-c3csc(COc4cc(C(=O)O)ccc4NC(=O)CNC)n3)cc2)C(C)C)cc1 [Example 1-126] | 210 to 212 °C
39 | CCCC(CCC)c1ccc(OCc2ccc(-c3csc(COc4ncccc4C(=O)O)n3)cc2)cc1 [Example 1-76] | 154.5 °C
40 | CCCC(CCC)c1ccc(CNC(=O)c2ccc(-c3csc(CN(CC(=O)O)Cc4ccccc4)n3)cc2)cc1 [Example 1-55] | 141 to 143 °C
41 | CCC(CC)c1ccc2c(c1)nc(-c1csc(COc3ccc(C(=O)O)cc3)n1)n2CC1CCCCC1 [Example 3-132] | 176 to 183 °C
42 | CCC(CC)c1ccc(N(Cc2ccc(-c3csc(COc4cncc(C(=O)O)c4)c3)cc2)C(C)C)cc1 [Example 4-4] | 160 °C
43 | CCCC(CCC)c1ccc(OCc2ccc(-c3csc(CN(CC(=O)O)CC(=O)Nc4ccc(C(C)C)cc4)c3)cc2)cc1 [Example 4-27] | 164 to 166 °C
44 | CN(Cc1ccccc1)c1ccc(-c2csc(CN(CC(=O)O)Cc3ccccc3Cl)n2)cc1 [Example 3-50] | 132 to 134 °C

Row | Compound | melting point
45 | CCCC(CCC)c1ccc(COc2ccc(-c3csc(CN(CC(=O)O)Cc4csc(C)n4)n3)c(C)c2)cc1 [Example 3-122] | 98 to 103 °C
46 | CCCC(CCC)c1ccc(N(Cc2ccc3nc(-c4csc(CN(CC(=O)O)Cc5nc6ccccc6[nH]5)n4)oc3c2)C(C)C)cc1 [Example 1-139] | 127 to 133 °C
47 | CCCC(CCC)c1ccc(N(Cc2ccc(-c3csc(COc4cncc(C(=O)O)c4)c3)cc2)C(C)C)cc1 [Example 4-3] | 156 °C
48 | CCCC(CCC)c1ccc(COc2ccc(-c3csc(CN4Cc5ccccc5C[C@H]4C(=O)[O-])n3)cc2)cc1.[Na+] [Example 3-112] | 254 to 255 °C
49 | CCC(CC)c1ccc(N(Cc2ccc(-c3csc(CN(C)c4ccc(OCC(=O)O)c(C(=O)O)c4)n3)cc2)C(C)C)cc1 [Example 1-124] | 124 °C
50 | CC(C)CC(=O)N(CC(=O)O)Cc1nc(-c2ccc(N(C)Cc3ccc(CC(C)C)cc3)cc2)cs1 [Example 3-59] | 117 to 118 °C
51 | CN(Cc1ccc(C(=O)O)cc1)c1nc(-c2ccc(CNc3ccc(C4CCCCC4)cc3)cc2)cs1 [Example 1-17] | 206 to 210 °C
52 | CC(C)Cc1ccc(CN(C)c2ccc(-c3csc(CN(C)C(Cc4ccccc4)C(=O)O)n3)cc2)cc1 (stereo not shown) [Example 3-85] | 138 to 139 °C
53 | CC(C)CN(Cc1ccc(-c2csc(CN(CC(=O)O)C(=O)N3CCOCC3)n2)cc1)c1ccc(C(C)(C)C)cc1 [Example 1-59] | 138 °C
54 | CC(C)CN(Cc1ccc(-c2csc(CN(CC(=O)O)Cc3ccccc3)n2)cc1)c1ccc(Cl)cc1 [Example 1-24] | 152 °C
55 | CCCC(CCC)c1ccc(N(C)Cc2ccc(-c3csc(COc4cncc(C(=O)O)c4)n3)cc2)cc1 [Example 1-4] | 135 to 138 °C
56 | CN(c1ccc(C(=O)O)cc1)c1nc(-c2ccc(C(=O)Nc3ccc(C4CCCCC4)cc3)cc2)cs1 [Example 1-52] | 250 °C (dec.)
57 | CCCC(CCC)c1ccc(OCc2ccc(-c3ccc(CN(CC(=O)O)S(C)(=O)=O)s3)cc2)cc1 [Example 4-49] | 133.1 to 136.5 °C
58 | CCCC(CCC)c1ccc(N(Cc2ccc(-c3csc(CN(CC(=O)O)C(=O)COCc4ccccc4)n3)cc2)C(C)C)cc1 [Example 1-134] | 158 to 160 °C
59 | CC(C)c1ccc(CN(c2ccc(-c3csc(CN(CC(=O)O)Cc4ccc(C(C)(C)C)cc4)n3)cc2)C(C)C)cc1 [Example 3-46] | 82 to 87 °C
60 | CCCC(CCC)c1ccc(OCc2ccc(-c3csc(CN(CC(=O)O)CC(=O)Nc4ccccc4)n3)cc2)cc1 [Example 1-95] | 149.5 °C
61 | CCC(CC)CN(Cc1ccc(-c2csc(COc3cncc(C(=O)O)c3)n2)cc1)c1ccc(C(C)C)cc1 [Example 1-74] | 181 °C
62 | CCCC(CCC)c1ccc(CN(C)c2ccc(-c3csc(COc4ccc(C(=O)O)cc4)n3)cc2)cc1 [Example 3-95] | 175 to 177 °C
63 | CCCC(CCC)c1ccc(N(Cc2ccc(-c3csc(COc4cc(C(=O)O)ccc4NC(C)=O)n3)cc2)C(C)C)cc1 [Example 1-108] | 129 to 131 °C
64 | CCCC(CCC)c1ccc(COc2ccc(C)cc2-c2csc(CN(C)S(=O)(=O)c3ccc(C(=O)O)cc3)n2)cc1 [Example 3-6] | 130 to 132 °C
